Test results: patent US20110098326A1, “2-FLUOROTHIAZOLE DERIVATIVES USEFUL AS IMAGING AGENTS; METHODS OF SYNTHESIS, AND METHODS OF USE” (priority 2009, published 2011)
Read-outs that look alike come from different tables or passages of the source.

Legend:
mGluR5 receptors = target: T1, mGluR5 receptors (Homo sapiens, UniProt P41594); experiment: In vitro binding to glutamate receptors ([^3H]MPEP displacement, membranes of transfected cell lines); conditions: mGluR5, radioligand [^3H]MPEP
T1 construct: expressed in transfected cells; host or cells: transiently or stably transfected cell lines (e.g., HEK293, COS, CHO, NIH3T3)
Protocol: The assay buffer is Standard Binding Buffer (50 mM Tris-HCl, 10 mM MgCl2, 0.1 mM EDTA, pH 7.4) and the membrane fraction source is transiently or stably transfected cell lines (e.g., HEK293, COS, CHO, NIH3T3)
Aliquots (50 μL) of radioligand are dispensed into the wells of a 96-well plate containing 100 μl of Standard Binding Buffer. Then, duplicate 50-μL aliquots of the test and reference compound dilutions are added.
The 250-4, reactions are incubated at room temperature and shielded from light (to prevent photolysis of light-sensitive ligands) for 1 hour, then harvested by rapid filtration onto Whatman GF/B glass fiber filters pre-soaked with 0.3% polyethyleneimine using a 96-well Brandel harvester. Four rapid 500-μL washes are performed with chilled Standard Binding Buffer to reduce non-specific binding. Filters are placed in 6-mL scintillation tubes and allowed to dry overnight. The next day, 4 mL of EcoScint scintillation cocktail (National Diagnostics) are added to each tube. The tubes are capped, labeled, and counted by liquid scintillation counting. […] The filter mats are dried, then scintillant is melted onto the filters and the radioactivity retained on the filters is counted in a Microbeta scintillation counter.
Raw data (dpm) representing total radioligand binding (i.e., specific+non-specific binding) are plotted as a function of the logarithm of the molar concentration of the competitor (i.e., test or reference compound).
Ki=IC50/(1+[ligand]/KD) (Eqn. 2)
where [ligand] equals the assay radioligand concentration and KD equals the affinity constant of the radioligand for the target receptor.

[1] = rat; cited from earlier work
[2] = monkey; cited from earlier work
[3] = human subjects; cited from earlier work

T1 sequence (P41594 21-1212): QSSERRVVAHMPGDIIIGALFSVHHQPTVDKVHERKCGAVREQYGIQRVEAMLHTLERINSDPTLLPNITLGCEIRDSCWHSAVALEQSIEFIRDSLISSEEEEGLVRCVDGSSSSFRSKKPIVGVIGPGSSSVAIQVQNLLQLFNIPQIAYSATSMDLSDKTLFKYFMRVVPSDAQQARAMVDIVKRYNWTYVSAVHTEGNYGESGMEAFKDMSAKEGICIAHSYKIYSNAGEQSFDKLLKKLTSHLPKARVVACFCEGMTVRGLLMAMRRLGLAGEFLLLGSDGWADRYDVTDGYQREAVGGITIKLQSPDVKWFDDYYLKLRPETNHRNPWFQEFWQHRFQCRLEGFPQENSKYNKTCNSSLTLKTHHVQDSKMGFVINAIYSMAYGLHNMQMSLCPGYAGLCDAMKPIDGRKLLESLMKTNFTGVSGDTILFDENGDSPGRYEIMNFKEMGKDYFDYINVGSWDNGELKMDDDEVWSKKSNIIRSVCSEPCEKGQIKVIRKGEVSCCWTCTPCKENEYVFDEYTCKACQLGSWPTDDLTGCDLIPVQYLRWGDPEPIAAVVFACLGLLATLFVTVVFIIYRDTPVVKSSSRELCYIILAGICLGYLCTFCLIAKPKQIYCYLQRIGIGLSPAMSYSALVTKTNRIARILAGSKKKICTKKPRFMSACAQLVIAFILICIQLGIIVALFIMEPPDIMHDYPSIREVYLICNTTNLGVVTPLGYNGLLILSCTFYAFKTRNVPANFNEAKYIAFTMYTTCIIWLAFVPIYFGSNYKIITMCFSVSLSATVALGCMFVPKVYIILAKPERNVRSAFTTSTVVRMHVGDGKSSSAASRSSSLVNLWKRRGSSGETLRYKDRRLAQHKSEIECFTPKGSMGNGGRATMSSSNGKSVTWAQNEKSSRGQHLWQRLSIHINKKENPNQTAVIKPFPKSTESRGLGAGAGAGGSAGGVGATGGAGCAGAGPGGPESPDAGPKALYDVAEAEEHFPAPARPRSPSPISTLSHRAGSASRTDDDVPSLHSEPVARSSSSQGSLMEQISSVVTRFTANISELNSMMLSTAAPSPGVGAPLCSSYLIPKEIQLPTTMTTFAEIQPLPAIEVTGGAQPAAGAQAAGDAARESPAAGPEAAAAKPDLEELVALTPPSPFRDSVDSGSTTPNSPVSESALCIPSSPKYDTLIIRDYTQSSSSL

Ki (mGluR5 receptors) [nM] | Compound | further results
< 150 | Fc1nc(C#Cc2ccccc2)cs1 [Compound 12, 2-fluoro-4-(phenylethynyl)thiazole] | –
< 50 | N#Cc1cccc(C#Cc2csc(F)n2)c1 [Compound 13, (5-((2-fluorothiazol-4-yl)ethynyl)benzonitrile)] | –
< 50 | N#Cc1cc(F)cc(C#Cc2csc(F)n2)c1 [Compound 14, 3-fluoro-5-((2-fluorothiazol-4-yl)ethynyl)benzonitrile] | –
< 50 | COc1cccc(C#Cc2csc(F)n2)c1 [Compound 15] | –
< 50 | N#CCc1cccc(C#Cc2csc(F)n2)c1 [Compound 16] | –
– | N#Cc1cc(F)cc(C#Cc2csc(C[18F])n2)c1 [[^18F]SP203, 3-fluoro-5-[[2-([^18F]fluoromethyl)thiazol-4-yl]ethynyl]benzonitrile] | defluorination [1]: rapidly defluorinated; defluorination [2]: rapidly defluorinated; defluorination [3]: slower or negligible
